This note sets out measurements from patent US20060030537A1, “Ceramide kinase and uses thereof” (priority 2004, published 2006).

Series [1] deals with A549 cells. The series can be described thus: Quantification of arachidonic acid (AA) release in A549 cells. It is filed as cell-based. Particulars: for AA release (lipid specificity): 1 μM lipid, 2 hours. As to the method: (§1) Cell Culture: A549 lung adenocarcinoma cells (epithelial-derived) were grown in low glucose DMEM (Invitrogen) supplemented with L-glutamine, 10% (v/v) fetal bovine serum (Invitrogen), 200 U/ml of penicillin G sodium, and 200 μg/ml of streptomycin sulfate. Cells were maintained under 80% confluency and standard incubator conditions (humidified atmosphere, 95% air, 5% CO2, 370 C). For treatment, cells were incubated for 2 hours in low glucose DMEM (Invitrogen) supplemented with L-glutamine, 2% (v/v) fetal bovine serum (Invitrogen), 200 U/ml of penicillin G sodium, and 200 μg/ml of streptomycin sulfate prior to the addition of agonist.
Quantification of arachidonic acid (AA) release: A549 cells (5×10^4) were labeled overnight with 5 μCi/mL [^3H]-AA (5 nM) (NEN). Cells were washed and incubated in DMEM supplemented with 2% fetal bovine serum for 2 hours. Following treatment, media was transferred to 1.5 mL polypropylene tubes, centrifuged at 10,000×g, and ^3H-AA cpm determined by scintillation counting. Results were controlled for equivalent number of cells quantified by MTT assay as described (Chalfant, C. E., Rathman, K., Pinkerman, R. L., Wood, R. E., Obeid, L. M., Ogretmen, B., and Hannun, Y. A. (2002) J. Biol. Chem. 277, 12587-12595) and by verification of total AA labeling by scintillation counting. For the experiments in FIG. 4, purified SMase D was obtained from Dr. Alfred H. Merrill, Jr., and SMase C (purified from Bacillus cereus) was obtained commercially from Sigma.
RNAi design and transfections: Knock-downs of ceramide kinase were performed essentially as described using sequence specific siRNA reagents (http:www.mpibpc.gwdg.de/abteilungen/100/105/sirna.html) (Lassus, P., Opitz-Araya, X., and Lazebnik, Y. (2002) Science 297, 1352-1354) using human ceramide kinase RNAi starting 142 nucleotides from start codon ([…]dTd (SEQ ID NO: 3) and […]dTd (SEQ ID NO:4)). All sequences were evaluated against the database using the NIH blast program to test for specificity (Xeragon, A Qiagen Company). A549 cells (3×10^4) were transfected with the 21-nucleotide duplexes using OligofectAMINE (Invitrogen) as recommended by the manufacturer. Following the 4 hour transfection, cells were treated and assayed for AA release or PGE2 synthesis at 26 hours post-transfection.

Series [2] deals with ceramide kinase. The series can be described thus: Ceramide kinase assay on lysates of treated or transfected A549 cells. It is filed as cell-based, human. As to the method: (§2) FIGS. 5A-5C. IL-1β and calcium ionophore increase ceramide-1-phosphate production and ceramide kinase activity. FIGS. 5A and 5B. The effect of IL-1 and A23187 on C-1-P levels and AA liberation. A549 cells (2×10^5) were labeled overnight with 10 μCi/mL [^3H]-arachidonic acid (10 nM), washed, and then treated with either 2.5 ng/mL of IL-1β (FIG. 5A) or 1 μg/mL of A23187 (FIG. 5B) for the indicated times. Two hours prior to Bligh-Dyer extraction, cells were chased with 20 μM of D-e-C6 NBD-ceramide (Matreya). At the appropriate times, media was taken for AA analysis, and lipids from the cells were extracted by the Bligh-Dyer method followed by analysis of NBD-C-1-P formation. Data are presented as % control of C-1-P levels (J) and AA release (B). Data are representative of three separate determinations on 2 separate occasions. FIG. 5C. IL-1β and calcium ionophore increase ceramide kinase activity. A549 cells (5×10^5) were treated with either 2.5 ng/mL of IL-1β for 3.5 hours or 1 μg/mL of A23187 for 5 minutes. Cells were then washed, lysed in assay buffer, and assayed for ceramide kinase activity. Data is presented as % control of ceramide kinase activity (Arbitrary densitometry units of fluorescent NBD-C-1-P produced/min/mg of total cellular protein). Data are representative of three separate determinations on 2 separate occasions.
FIGS. 6A-6B. Ceramide kinase RNAi downregulates endogenous ceramide kinase activity and mRNA levels. FIG. 6A. The effect of ceramide kinase RNAi on endogenous ceramide kinase activity. […] Following the same procedure as outlined in FIG. 6A, total RNA was extracted and analyzed via logarithmic reverse-transcriptase polymerase chain reaction for human ceramide kinase and 18s ribosomal RNA. […]
Ceramide Kinase Assay: Ceramide kinase activity was measured as described previously with slight modifications (Bajjalieh, S., and Batchelor, R. (2001) Methods Enzymol. 311, 207-215). […] Following Bligh-Dyer extraction, lipids were separated by thin layer chromatography, and NBD-C-1-P was visualized/quantified by fluorescent phosphorimaging.

For series [3], the system named is C-1-P levels. The series can be described thus: Ceramide-1-phosphate levels by pulse-labeling with D-e-C6 NBD-ceramide in A549 cells. It is filed as cell-based. The protocol:
as §2
Quantification of ceramide-1-phosphate levels by pulse-labeling with D-e-C6 NBD-ceramide: Two hours prior to Bligh-Dyer extraction, cells were chased with 20 μM of D-e-C6 NBD-ceramide (Matreya). At the appropriate times, lipids were extracted by the Bligh-Dyer method, analyzed for NBD-C-1-P formation using TLC analysis, and results normalized to total lipid phosphate as described (Perry, D. K., Bielawska, A., and Hannun, Y. A. (2000) Methods Enzymol. 312, 22-31).

The subject of series [4] is A549 cells. The series can be described thus: Quantification of prostaglandin E2 synthesis in A549 cells (EIA). It is filed as cell-based. Particulars: 2.5 μM, only after 1 hour. As to the method:
as §1
Quantification of prostaglandin E2 and thromboxane B2 synthesis: For measurement of PGE2 and TXB2 levels, aliquots of media were taken at indicated time points and assayed according to manufacturer's instructions using the prostaglandin E2 and thromboxane B2 monoclonal EIA Kit from Cayman Chemical. Briefly, media containing PGE2 or TXB2 competes with PGE2 or TXB2 acetylcholinesterase conjugate for a limited amount of monoclonal antibody. The antibody-PGE2 or -TXB2 conjugate binds to a goat-anti-mouse antibody previously attached to the 96-well plate. The plate is washed to remove unbound reagents and then the substrate for acetylcholinesterase is provided. […] Results were controlled for equivalent number of cells quantified by MTT assay. […]

In series [5] the test system is L929 fibroblasts. The series can be described thus: PGE2 synthesis in L929 fibroblasts. It is filed as cell-based. Conditions: L929 fibroblasts that do not express COX-2. As to the method:
(§3) FIGS. 3A-3B. FIG. 3A. The effects of ceramide-1-phosphate on TXB2 synthesis. A549 cells (1×10^5) were treated with D-e-C16 ceramide-1-phosphate (1 μM) solubilized in 2% dodecane/98% ethanol (final concentration in treatments was 0.002% dodecane/0.098% ethanol (EtOH)) for the indicated times. The results are presented as % control of TXB2 controlled for equivalent number of cells by MTT assay. Data are representative of 3 separate determinations on 2 separate occasions. FIG. 3B. The effects of ceramide-1-phosphate on AA release and PGE2 synthesis in L929 fibroblasts. L929 cells (5×10^4) were labeled overnight with 5 μCi/mL [^3H]-arachidonic acid (5 nM). Cells were washed and placed in DMEM supplemented with 2% fetal bovine serum for two hours. Cells were then treated with 2.5 μM D-e-C16 ceramide-1-phosphate (solubilized in 98% ethanol/2% dodecane) for the indicated times. […]
(§4) Quantification of prostaglandin E2 and thromboxane B2 synthesis: For measurement of PGE2 and TXB2 levels, aliquots of media were taken at indicated time points and assayed according to manufacturer's instructions using the prostaglandin E2 and thromboxane B2 monoclonal EIA Kit from Cayman Chemical. […] Results were controlled for equivalent number of cells quantified by MTT assay.

Series [6] has as its system L929 fibroblasts. The series can be described thus: AA release in L929 fibroblasts. It is filed as cell-based. Particulars: 1 μM, after 1 hour. The protocol: as §3, with “hours.” for “hours. Cells were then treated with 2.5 μM D-e-C16 ceramide-1-phosphate (solubilized in 98% ethanol/2% dodecane) for the indicated times.”
Quantification of arachidonic acid (AA) release: A549 cells (5×10^4) were labeled overnight with 5 μCi/mL [^3H]-AA (5 nM) (NEN). […] Following treatment, media was transferred to 1.5 mL polypropylene tubes, centrifuged at 10,000×g, and ^3H-AA cpm determined by scintillation counting. Results were controlled for equivalent number of cells quantified by MTT assay as described (Chalfant, C. E., Rathman, K., Pinkerman, R. L., Wood, R. E., Obeid, L. M., Ogretmen, B., and Hannun, Y. A. (2002) J. Biol. Chem. 277, 12587-12595) and by verification of total AA labeling by scintillation counting. […]

For series [7], the system named is A549 cells. The series can be described thus: Quantification of thromboxane B2 synthesis in A549 cells (EIA). It is filed as cell-based. Conditions: 1 μM. The protocol: as §3, §4
Series [8] has as its target protein phosphatase-1. The series can be described thus: Inhibition of protein phosphatase-1. It is filed as biochemical.
The test system of series [9] is COX-2. The series can be described thus: COX-2 expression by western immunoblotting. It is filed as cell-based.
Series [10] addresses protein phosphatase 2A. The series can be described thus: Inhibition of protein phosphatase 2A. It is filed as biochemical.

`CCCCCCCC/C=C\CCCCCCCC(=O)OC[C@H](COP(=O)(O)O)OC(=O)CCCCCCC/C=C\CCCCCCCC` [PA, di-oleoyl phosphatidic acid]: in [1], the “AA release (lipid specificity)” value was “Only C-1-P induced significant AA release”.

As to di-oleoylglycerol [DAG], the “AA release (lipid specificity)” value in series [1] is listed as “Only C-1-P induced significant AA release”.

`CNc1ccc2oc(C[C@H]3O[C@@]4(CC[C@H]3C)O[C@H]([C@H](C)C(=O)c3ccc[nH]3)[C@H](C)C[C@H]4C)nc2c1C(=O)O` [A23187]: the “time to increased AA release” value in [1] (1 μg/mL) was “within minutes”. Further, the “increase of ceramide kinase activity” value in [2] (1 μg/mL, 5 minutes) was determined as 216%. Moreover, the “maximal increase in C-1-P levels” value in series [3] (1 μg/mL, after 10 minutes) is “approximately 4 fold”. The C-1-P levels result in series [3] (1 μg/mL, within 5 minutes of treatment) is reported as “significant increase”.

In the case of `CCCCCCCCCCCCC/C=C/[C@@H](O)[C@@H](N)COP(=O)(O)O` [S-1-P, D-erytho-sphingosine-1-phosphate], the “AA release (lipid specificity)” value in [1] is on record as “Only C-1-P induced significant AA release”.

`CCCCCCCCCCCCC/C=C/[C@@H](O)[C@H](COP(=O)(O)O)NC(=O)CCCCCCCCCCCCCCC` [C-1-P, D-erythro-C16 ceramide-1-phosphate]: the PGE2 synthesis result in series [4] is given as “Increased”. Also, the “concentration as low as which induces a significant increase in AA release” value in series [1] came out at 100 nM. The “AA release (lipid specificity)” value in series [1] was “induced significant AA release”. Moreover, the “maximal early increase in AA release” value in series [1] (2.5 μM, after 20 minutes) is “approximately 2 fold”. Further, the AA release entry in series [1] (2.5 μM, after 1 hour, following reuptake) is reported as “sustained increase”. Also, in series [1] (8 hours, read-out: EC50 of effect on AA release), the EC50 is 400 nM. In series [5], the PGE2 synthesis/release result is reported as “not observed”. Besides, the “AA release over basal release” value in series [6] stood at 225%. The results for the “increase of TXB2” value in series [7] (after 2 hours) and in series [7] (after 4 hours) were 2.5 fold and 11 fold, respectively. The IC50 in [8] and in [10] was 50 nM in each case. Moreover, in series [9], the “expression of COX-2” value was “no effect”.

For the compound IL-1β, in series [2] (2.5 ng/mL, 3.5 hours), the “increase of ceramide kinase activity” value turned out to be 187%. Moreover, the “increase in C-1-P levels” value in [3] (2.5 ng/mL, after 4 hours) was 242%.

For `CCCCCCCCCCCCC/C=C/[C@@H](O)[C@H](CO)NC(=O)CCCCCCCCCCCCCCC` [CER, D-erythro C16 ceramide], the “AA release (lipid specificity)” value in series [1] was “small increase”. The “AA release, long term treatment” value in series [1] (8 hours) is on record as “no further increase”.

As usually defined, the EC50 is the concentration needed to bring the measured effect to its halfway point. Broadly, the IC50 is the concentration that inhibits the measured activity by half. Low values mean higher potency, high ones lower potency.
